Legend:
Type in all cases: in vivo, Balb/c mice
[1] = tested on: BLG-stimulated lymphocytes; assay: Cytokine ELISA (IFN-γ) in supernatants of BLG-stimulated spleen cells from treated mice; settings: mice fed whey proteins 3 mg/g on day 0; drug daily day -3 to day 4; 5 days after tolerization; whey vs non-tolerized control mice, drugs vs whey proteins fed mice
Procedure: To start the experiment the mice were forced fed and/or injected i.p. with butyrate (which promotes COX-2 activity), ibuprofen (which inhibits COX activity) or saline (control) daily from day −3 to day 4. On day 0, the mice were fed by gastric feeding whey proteins (3 mg/g of body weight) or same volume of saline water. Gavage products were dissolved in 0.3 ml of saline water. At day 4 of each experiment, all mice were immunized by intraperitoneal injection of 0.08 mg of BLG as well as 0.08 mg of OVA in 0.04 ml sterile saline mixed with 0.16 ml 2% Al(OH)3 (Superfos Biosecotr A/S, Denmark). At day 4 or at day 26, blood samples were obtained from cardiac aortic punction under 3% Isoflurane anaesthesia (Abbott SA). Immediately after death, obtained by cervical dislocation, spleens were removed and pooled according to group of treatment in 20 ml chilled RPMI supplemented with 5% FCS. […] (^3H)Tdr (Amersham, Zurich) was added for the final 6 hours of culture and the plates were harvested and analyzed by scintillation counting (TopCount, Canberra Packard, Zurich). […] Stimulation indices were calculated as the ratio of blank-subtracted test and control values at 2.5 mg BLG/mL and 50 μg PHA/mL. […] IFN-γ levels were measured using cytokine specific ELISA kit Endogen; which were performed according to the manufacturers' instructions. […]

[2] = tested on: BLG-stimulated lymphocytes; assay: Prostaglandin E2 measurement (EIA) in culture media of lymphocytes from treated mice; settings: mice fed whey proteins 3 mg/g on day 0; drug daily day -3 to day 4; 5 days after tolerization; whey vs non-tolerized control mice, drugs vs whey proteins fed mice
Procedure: To start the experiment the mice were forced fed and/or injected i.p. with butyrate (which promotes COX-2 activity), ibuprofen (which inhibits COX activity) or saline (control) daily from day −3 to day 4. On day 0, the mice were fed by gastric feeding whey proteins (3 mg/g of body weight) or same volume of saline water. Gavage products were dissolved in 0.3 ml of saline water. At day 4 of each experiment, all mice were immunized by intraperitoneal injection of 0.08 mg of BLG as well as 0.08 mg of OVA in 0.04 ml sterile saline mixed with 0.16 ml 2% Al(OH)3 (Superfos Biosecotr A/S, Denmark). At day 4 or at day 26, blood samples were obtained from cardiac aortic punction under 3% Isoflurane anaesthesia (Abbott SA). Immediately after death, obtained by cervical dislocation, spleens were removed and pooled according to group of treatment in 20 ml chilled RPMI supplemented with 5% FCS. […] (^3H)Tdr (Amersham, Zurich) was added for the final 6 hours of culture and the plates were harvested and analyzed by scintillation counting (TopCount, Canberra Packard, Zurich). […] Stimulation indices were calculated as the ratio of blank-subtracted test and control values at 2.5 mg BLG/mL and 50 μg PHA/mL. PGE2 levels in the culture media, from lymphocytes cultured for 6 hrs or 12 hrs, were determined by using an enzyme immunoassay (EIA) kit (Cayman Chemical, ). […]

anti-BLG IgE = assay: Measurement of specific anti-BLG IgE antibody in serum by ELISA; settings: 26 days post-tolerization; whey vs non-tolerized mice (p<0.05), drugs vs whey proteins fed mice
Procedure: To start the experiment the mice were forced fed and/or injected i.p. with butyrate (which promotes COX-2 activity), ibuprofen (which inhibits COX activity) or saline (control) daily from day −3 to day 4. On day 0, the mice were fed by gastric feeding whey proteins (3 mg/g of body weight) or same volume of saline water. Gavage products were dissolved in 0.3 ml of saline water. At day 4 of each experiment, all mice were immunized by intraperitoneal injection of 0.08 mg of BLG as well as 0.08 mg of OVA in 0.04 ml sterile saline mixed with 0.16 ml 2% Al(OH)3 (Superfos Biosecotr A/S, Denmark). […] (^3H)Tdr (Amersham, Zurich) was added for the final 6 hours of culture and the plates were harvested and analyzed by scintillation counting (TopCount, Canberra Packard, Zurich). […] Stimulation indices were calculated as the ratio of blank-subtracted test and control values at 2.5 mg BLG/mL and 50 μg PHA/mL. […] Optical densities were measured at 492 nm, after 15 mn of incubation at room temperature, using a Dynatech MR500 ELISA reader (Dynatech, Embrach-Embraport, Switzerland. Pooled samples from twenty non immunized female mice were used as negative controls in each plate. The cut-off dilutions were determined by calculating the dilution of the samples which gave twice the absorbance of the negative controls. Titers were expressed as the log10 of the reciprocal of the cut-off dilution.

spleen cells = assay: Specific proliferation assay ((3H)Tdr incorporation) of spleen cells from treated mice; settings: 4 days post-tolerization; index below 0.5 indicates tolerized mice; drugs compared with whey proteins fed mice
Procedure: To start the experiment the mice were forced fed and/or injected i.p. with butyrate (which promotes COX-2 activity), ibuprofen (which inhibits COX activity) or saline (control) daily from day −3 to day 4. On day 0, the mice were fed by gastric feeding whey proteins (3 mg/g of body weight) or same volume of saline water. Gavage products were dissolved in 0.3 ml of saline water. At day 4 of each experiment, all mice were immunized by intraperitoneal injection of 0.08 mg of BLG as well as 0.08 mg of OVA in 0.04 ml sterile saline mixed with 0.16 ml 2% Al(OH)3 (Superfos Biosecotr A/S, Denmark). At day 4 or at day 26, blood samples were obtained from cardiac aortic punction under 3% Isoflurane anaesthesia (Abbott SA). Immediately after death, obtained by cervical dislocation, spleens were removed and pooled according to group of treatment in 20 ml chilled RPMI supplemented with 5% FCS. Spleen cell solutions were homogenized through a cellular sieve (Falcon) and purified from red cells using Histopaque density centrifugation (Sigma) at 390×g for 20 min. […] (^3H)Tdr (Amersham, Zurich) was added for the final 6 hours of culture and the plates were harvested and analyzed by scintillation counting (TopCount, Canberra Packard, Zurich). […] Stimulation indices were calculated as the ratio of blank-subtracted test and control values at 2.5 mg BLG/mL and 50 μg PHA/mL. […]

CC(C)Cc1ccc(C(C)C(=O)O)cc1 (stereo not shown) [ibuprofen]
not observed: INF-γ production by BLG-stimulated lymphocytes in culture [1] | PGE2 production by BLG-stimulated lymphocytes in culture [2] | humoral anti-BLG IgE titers (anti-BLG IgE) | proliferative response index (stimulation index) (spleen cells)
